# Measurements reported in ChEMBL document CHEMBL1201862, “PubChem BioAssay data set” (2004).
# Activity calls are given as the source filed them.
# Legend:
# [1] = alpha-synuclein stem-loop luciferase translation blockers – H4 neuroglioma cells, luminescence, confirmation (AID 1988); assay type: functional, cell-based
# [2] = A549 cell cytotoxicity, dose response, cytotoxicity control, plate reader, cherry-pick, antagonist series (AID 743412); assay type: functional, cell-based
# [3] = Luminescence Cell-Based Dose Response HTS to Identify Inhibitors of 5'UTR Stem-Loop Driven Prion Protein mRNA Translation in H4 Neuroglioblastoma Cells. [Related pubchem assays: 1827 (Project Summary), 1813 (Primary HTS)]; assay type: functional
# [4] = blockers of bursicon-stimulated LGR2 cAMP reporter – cell-based, HEK293, CRE-luciferase reporter, cherry pick, set 2, dose response (AID 743343); assay type: functional;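 further: transfected cells were stimulated with diluted bursicon conditioned medium after compound addition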
# [5] = viability loss in HEK293 cells – cell-based, plate reader, cherry-picked samples, cytotoxicity control, dose response (AID 743446); assay type: functional
# HEK293 = test: EBV LMP1 TES2 canonical NF-kB signalling blockers – cell-based, HEK293, luciferase, cherry-pick, dose response (AID 588343); assay type: functional; details: Homo sapiens
# [6] = toxicity toward HepG2 liver cells – cell-based, plate reader, cherry-pick, antagonist series, cytotoxicity control, dose response (AID 743416); assay type: functional
# [7] = blockade of melanocortin 4 receptor signaling – cell-based, plate reader, cherry pick, counter-screen for LGR2 antagonist project, dose response (AID 743444); assay type: functional;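 further: transfected HEK 293 cells stimulated with alpha-MSH peptide; potency of inhibitors of the alpha-MSH evoked signal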
# [8] = biological target: Beta-2 adrenergic receptor (Homo sapiens, UniProt P07550); test: ADRB2 activation measured by internalization – cell-based, FAP fluorogen, flow cytometry, cherry pick 1, dose response (AID 588763); assay type: functional
# Sequence of Beta-2 adrenergic receptor (P07550 whole entry): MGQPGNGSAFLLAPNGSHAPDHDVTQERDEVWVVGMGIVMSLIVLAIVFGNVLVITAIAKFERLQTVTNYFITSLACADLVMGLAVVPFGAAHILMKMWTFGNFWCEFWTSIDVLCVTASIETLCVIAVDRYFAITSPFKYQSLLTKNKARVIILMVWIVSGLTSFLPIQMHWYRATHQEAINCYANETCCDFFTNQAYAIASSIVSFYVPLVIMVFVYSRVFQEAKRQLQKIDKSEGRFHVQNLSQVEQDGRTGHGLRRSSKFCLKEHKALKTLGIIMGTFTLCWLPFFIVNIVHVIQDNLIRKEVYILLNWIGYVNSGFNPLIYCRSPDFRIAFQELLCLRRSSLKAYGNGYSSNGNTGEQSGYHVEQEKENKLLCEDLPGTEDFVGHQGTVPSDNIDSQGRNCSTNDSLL
# Exodeoxyribonuclease V = Exodeoxyribonuclease V (Escherichia coli (strain K12), UniProt P04993+P07648+P08394); test: RecBCD inhibition via phage-restricted bacterial growth – absorbance, V66 E. coli, mutant T4 phage, counter-screen for AddAB inhibitor project, dose response (AID 492957); assay type: functional, cell-based, Escherichia coli str. K-12 substr. MG1655
# Sequence of Exodeoxyribonuclease V (P04993 whole entry): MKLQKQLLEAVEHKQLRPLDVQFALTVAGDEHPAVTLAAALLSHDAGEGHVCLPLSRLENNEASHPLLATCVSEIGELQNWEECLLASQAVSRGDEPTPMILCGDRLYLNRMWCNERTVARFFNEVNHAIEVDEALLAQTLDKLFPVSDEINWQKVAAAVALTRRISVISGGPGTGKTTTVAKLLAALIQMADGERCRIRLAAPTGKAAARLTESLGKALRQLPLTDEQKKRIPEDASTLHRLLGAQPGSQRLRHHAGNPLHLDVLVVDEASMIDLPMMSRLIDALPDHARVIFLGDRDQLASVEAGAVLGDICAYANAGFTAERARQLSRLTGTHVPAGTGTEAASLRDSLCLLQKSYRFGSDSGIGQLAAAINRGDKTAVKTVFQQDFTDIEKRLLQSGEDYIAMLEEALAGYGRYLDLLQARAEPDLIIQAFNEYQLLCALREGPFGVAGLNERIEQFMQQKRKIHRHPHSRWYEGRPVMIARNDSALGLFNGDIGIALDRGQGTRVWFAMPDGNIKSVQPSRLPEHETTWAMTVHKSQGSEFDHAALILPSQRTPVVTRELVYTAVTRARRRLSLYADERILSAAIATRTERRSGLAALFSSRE
# Sequence of Exodeoxyribonuclease V (P07648 whole entry): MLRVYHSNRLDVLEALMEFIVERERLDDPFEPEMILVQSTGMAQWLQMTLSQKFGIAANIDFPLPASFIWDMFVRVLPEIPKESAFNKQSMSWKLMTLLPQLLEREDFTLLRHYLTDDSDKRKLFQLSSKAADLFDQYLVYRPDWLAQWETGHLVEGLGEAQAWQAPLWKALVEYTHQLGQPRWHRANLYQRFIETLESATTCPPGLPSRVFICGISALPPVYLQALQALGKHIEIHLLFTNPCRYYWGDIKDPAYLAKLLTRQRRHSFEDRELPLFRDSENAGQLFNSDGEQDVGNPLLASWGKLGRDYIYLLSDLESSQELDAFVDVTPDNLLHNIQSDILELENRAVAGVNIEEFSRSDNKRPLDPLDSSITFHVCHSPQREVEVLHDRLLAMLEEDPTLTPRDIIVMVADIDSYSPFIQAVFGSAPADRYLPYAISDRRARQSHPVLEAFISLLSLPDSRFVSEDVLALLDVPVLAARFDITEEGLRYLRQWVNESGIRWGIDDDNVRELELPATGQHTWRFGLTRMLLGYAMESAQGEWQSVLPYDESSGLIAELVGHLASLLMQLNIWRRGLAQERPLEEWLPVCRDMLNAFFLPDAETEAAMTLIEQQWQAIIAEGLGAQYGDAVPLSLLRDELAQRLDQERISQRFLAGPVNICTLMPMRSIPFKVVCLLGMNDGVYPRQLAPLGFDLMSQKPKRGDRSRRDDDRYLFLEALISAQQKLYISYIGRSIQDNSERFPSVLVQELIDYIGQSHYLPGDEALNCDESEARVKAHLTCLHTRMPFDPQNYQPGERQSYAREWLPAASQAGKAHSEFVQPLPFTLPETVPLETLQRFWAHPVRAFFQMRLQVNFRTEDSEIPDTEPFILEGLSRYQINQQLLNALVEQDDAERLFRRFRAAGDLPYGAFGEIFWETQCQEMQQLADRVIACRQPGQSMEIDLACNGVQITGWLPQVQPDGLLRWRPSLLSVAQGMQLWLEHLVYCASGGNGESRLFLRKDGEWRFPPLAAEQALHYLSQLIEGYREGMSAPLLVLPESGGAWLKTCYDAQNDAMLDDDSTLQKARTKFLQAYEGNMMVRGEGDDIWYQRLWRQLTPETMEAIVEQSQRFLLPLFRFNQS
# Sequence of Exodeoxyribonuclease V (P08394 whole entry): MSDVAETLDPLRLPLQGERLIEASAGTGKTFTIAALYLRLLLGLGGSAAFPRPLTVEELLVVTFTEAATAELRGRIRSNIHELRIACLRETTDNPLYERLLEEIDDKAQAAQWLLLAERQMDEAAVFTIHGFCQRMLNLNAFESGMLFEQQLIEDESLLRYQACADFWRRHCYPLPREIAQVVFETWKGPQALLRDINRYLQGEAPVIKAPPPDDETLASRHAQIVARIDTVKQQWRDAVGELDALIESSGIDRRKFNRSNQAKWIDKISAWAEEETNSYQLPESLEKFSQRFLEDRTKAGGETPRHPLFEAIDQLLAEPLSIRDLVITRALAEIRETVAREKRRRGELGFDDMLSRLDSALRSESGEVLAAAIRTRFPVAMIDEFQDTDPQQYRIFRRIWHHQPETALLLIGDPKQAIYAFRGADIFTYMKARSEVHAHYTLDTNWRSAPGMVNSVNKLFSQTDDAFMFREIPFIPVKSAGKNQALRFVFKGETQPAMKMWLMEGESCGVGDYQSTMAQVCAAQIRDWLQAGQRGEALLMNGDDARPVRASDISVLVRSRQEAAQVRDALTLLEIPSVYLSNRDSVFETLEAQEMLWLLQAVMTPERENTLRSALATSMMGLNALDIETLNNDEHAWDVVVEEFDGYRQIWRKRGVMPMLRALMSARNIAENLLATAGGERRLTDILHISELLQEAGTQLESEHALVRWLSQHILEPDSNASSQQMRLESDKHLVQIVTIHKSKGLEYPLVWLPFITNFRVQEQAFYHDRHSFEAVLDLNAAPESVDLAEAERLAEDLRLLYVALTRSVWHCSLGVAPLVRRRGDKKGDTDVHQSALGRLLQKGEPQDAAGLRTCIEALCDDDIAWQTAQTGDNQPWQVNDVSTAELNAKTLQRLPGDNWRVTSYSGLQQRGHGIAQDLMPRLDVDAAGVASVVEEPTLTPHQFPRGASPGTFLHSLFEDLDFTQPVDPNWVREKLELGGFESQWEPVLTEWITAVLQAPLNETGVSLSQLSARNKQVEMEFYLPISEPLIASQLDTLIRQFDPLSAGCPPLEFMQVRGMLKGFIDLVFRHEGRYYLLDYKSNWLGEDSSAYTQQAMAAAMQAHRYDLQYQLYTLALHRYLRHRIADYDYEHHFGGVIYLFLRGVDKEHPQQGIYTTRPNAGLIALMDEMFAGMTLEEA
# [9] = Counterscreen for AddAB inhibitors: absorbance-based bacterial cell-based high throughput dose response assay for inhibitors of bacterial viability. [Related pubchem assays (depositor defined):AID435030, AID449728, AID449731, AID488942, AID488955, AID488956]; assay type: functional
# [10] = biological target: Arf-GAP with SH3 domain, ANK repeat and PH domain-containing protein 1 (Homo sapiens, UniProt Q9ULH1); assay type: functional;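 further: biochemical fluorescence polarization dose–response screen measuring inhibition of ASAP1; ASAP1 GAP domain stimulating GTP hydrolysis by truncated human ARF1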
# Sequence of Arf-GAP with SH3 domain, ANK repeat and PH domain-containing protein 1 (Q9ULH1 whole entry, the tested form may be a part): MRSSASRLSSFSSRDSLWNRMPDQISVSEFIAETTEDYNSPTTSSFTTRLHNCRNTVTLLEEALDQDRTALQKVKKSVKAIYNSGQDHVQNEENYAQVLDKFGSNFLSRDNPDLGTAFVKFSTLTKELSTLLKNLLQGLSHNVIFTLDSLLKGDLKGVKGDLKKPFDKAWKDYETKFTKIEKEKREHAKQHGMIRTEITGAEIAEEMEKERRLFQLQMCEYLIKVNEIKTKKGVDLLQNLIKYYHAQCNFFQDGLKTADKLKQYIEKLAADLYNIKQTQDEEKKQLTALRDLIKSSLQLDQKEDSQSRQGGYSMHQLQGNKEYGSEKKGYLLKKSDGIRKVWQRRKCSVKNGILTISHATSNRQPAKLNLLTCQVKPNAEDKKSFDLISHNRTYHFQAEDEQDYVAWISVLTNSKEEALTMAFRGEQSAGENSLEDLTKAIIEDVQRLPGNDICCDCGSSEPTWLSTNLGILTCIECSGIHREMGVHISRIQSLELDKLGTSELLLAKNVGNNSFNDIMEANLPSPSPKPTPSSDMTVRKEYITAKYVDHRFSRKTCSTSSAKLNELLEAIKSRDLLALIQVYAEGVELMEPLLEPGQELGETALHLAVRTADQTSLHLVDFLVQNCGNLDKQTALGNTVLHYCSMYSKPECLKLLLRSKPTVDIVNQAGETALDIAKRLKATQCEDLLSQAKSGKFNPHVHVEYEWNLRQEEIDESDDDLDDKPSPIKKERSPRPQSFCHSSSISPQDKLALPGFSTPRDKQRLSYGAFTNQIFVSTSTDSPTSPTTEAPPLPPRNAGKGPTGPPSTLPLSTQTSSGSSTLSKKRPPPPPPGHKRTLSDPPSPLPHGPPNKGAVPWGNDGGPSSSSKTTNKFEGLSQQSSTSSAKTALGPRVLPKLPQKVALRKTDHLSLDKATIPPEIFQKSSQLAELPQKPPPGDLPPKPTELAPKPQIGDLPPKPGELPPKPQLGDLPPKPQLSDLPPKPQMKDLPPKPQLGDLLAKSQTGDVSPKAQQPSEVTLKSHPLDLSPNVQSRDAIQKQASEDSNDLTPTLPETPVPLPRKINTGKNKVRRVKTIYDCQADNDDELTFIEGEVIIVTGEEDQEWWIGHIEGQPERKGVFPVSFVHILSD
# CHO = CHO cell viability loss, potency – luminescence, cytotoxicity control for TLR9-MyD88 binding inhibitor project, dose response (AID 588339); assay type: functional, cell-based, hamster; details: Cricetulus griseus;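 further: CHO cells stably coexpressing TLR9 and MyD88 fusions from primary screen; compound exposure lasted 48 hours before viability readout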
# [11] = biological target: T1, Endoribonuclease toxin MazF (Escherichia coli K-12, UniProt P0AE70); test: substrate-only fluorescence increase artefacts – biochemical, single-stranded RNase substrate, counter-screen for MazEF activator project, dose response (AID 588502); assay type: functional
# T1 sequence (P0AE70 whole entry): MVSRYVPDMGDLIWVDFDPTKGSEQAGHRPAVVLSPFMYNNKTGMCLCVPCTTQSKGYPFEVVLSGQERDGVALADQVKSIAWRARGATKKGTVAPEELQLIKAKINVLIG
# [12] = biological target: T1, Endoribonuclease toxin MazF; test: activation of MazEF endoribonuclease cleavage – biochemical, fluorescence, single-stranded RNA substrate, uHTS hits, dose response (AID 588481); assay type: functional
# Beta Lactamase = Beta Lactamase (Pseudomonas aeruginosa, UniProt Q932Y6); test: BLA reporter interference, concentration series – BLA reporter cells, FRET fluorescence, artefact control for TLR9-MyD88 binding inhibitor project, dose response (AID 588341); assay type: cell-based;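 further: cell based assay in CHO-K1 cells stably expressing beta-lactamase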
# Sequence of Beta Lactamase (Q932Y6 whole entry): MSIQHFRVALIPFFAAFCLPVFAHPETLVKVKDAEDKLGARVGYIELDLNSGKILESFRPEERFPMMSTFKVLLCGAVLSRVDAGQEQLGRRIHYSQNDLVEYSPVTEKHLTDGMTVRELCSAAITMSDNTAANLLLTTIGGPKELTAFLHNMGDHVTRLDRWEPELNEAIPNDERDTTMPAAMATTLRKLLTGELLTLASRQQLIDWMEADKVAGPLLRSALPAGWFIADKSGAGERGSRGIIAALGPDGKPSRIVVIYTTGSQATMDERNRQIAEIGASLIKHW
# [13] = biological target: T2, Corticotropin-releasing factor receptor 2/Corticotropin-releasing factor-binding protein (Homo sapiens, UniProt P24387+Q13324); test: Dose Response confirmation of uHTS hits for small molecule antagonists of the CRF-binding protein and CRF-R2 receptor complex.; assay type: functional; details: read-out: IC50_Mean
# T2 sequence (Q13324 whole entry): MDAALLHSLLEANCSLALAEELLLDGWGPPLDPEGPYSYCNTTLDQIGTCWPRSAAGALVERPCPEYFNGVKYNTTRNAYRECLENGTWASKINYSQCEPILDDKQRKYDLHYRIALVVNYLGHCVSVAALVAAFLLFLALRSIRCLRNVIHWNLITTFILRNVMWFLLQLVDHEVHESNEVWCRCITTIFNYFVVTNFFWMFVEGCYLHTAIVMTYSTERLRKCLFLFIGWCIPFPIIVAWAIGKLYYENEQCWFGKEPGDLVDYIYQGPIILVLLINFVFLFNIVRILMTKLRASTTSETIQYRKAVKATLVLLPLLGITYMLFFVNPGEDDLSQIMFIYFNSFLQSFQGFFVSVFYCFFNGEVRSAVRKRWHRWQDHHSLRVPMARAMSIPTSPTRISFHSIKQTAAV
# T2 sequence (P24387 whole entry): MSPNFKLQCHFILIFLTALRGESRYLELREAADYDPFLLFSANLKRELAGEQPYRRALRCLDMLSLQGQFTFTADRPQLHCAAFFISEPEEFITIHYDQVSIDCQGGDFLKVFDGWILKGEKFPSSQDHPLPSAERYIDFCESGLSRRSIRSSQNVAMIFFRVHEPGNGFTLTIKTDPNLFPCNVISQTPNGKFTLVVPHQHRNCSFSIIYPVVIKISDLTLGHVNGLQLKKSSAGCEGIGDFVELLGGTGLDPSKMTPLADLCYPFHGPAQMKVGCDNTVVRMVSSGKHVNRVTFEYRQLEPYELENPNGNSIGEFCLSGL
# [14] = biological target: T2, Corticotropin-releasing factor receptor 2/Corticotropin-releasing factor-binding protein; test: activators of CRF receptor 2 with binding protein – uHTS hits, confirmation (AID 602473); assay type: functional; details: read-out: EC50_Mean
smiles,measurement,setting,value
O=C(Nc1ccccn1)c1onc2c1CCCC2,EC50,[1],4.67 µM (active)
same,AC50,[2],45.1 µM (active)
same,EC50,[3],50.2 µM (active)
same,AC50,[4],3.65 µM (active)
same,AC50,[5],> 52 µM (inactive)
same,AC50,HEK293,1.46 µM (active)
same,AC50,[6],15.9 µM (active)
same,AC50,[7],3.55 µM (active)
CCOC(=O)c1cn(C2CC2)c2c(F)c(NCCCN(C)C)c(F)cc2c1=O,EC50,[8],353 nM (active)
same,IC50,Exodeoxyribonuclease V,> 119 µM (inactive)
same,IC50,[9],75.9 µM (inactive)
COc1cc2c3nnc(-c4ccc(F)cc4)c-3cn(Cc3cccc(C)c3)c2cc1OC,IC50,[10],7.44 µM (active)
same,IC50,CHO,10.2 µM (inactive)
same,EC50,[11],16.7 µM (active)
same,EC50,[12],24.1 µM (inactive)
same,IC50,Beta Lactamase,3.92 µM (active)
COc1ccc(C(=O)Nn2c(SCC(=O)NC3CCCCC3)nc3ccccc3c2=O)cc1,IC50,[13],< 368 nM (active)
same,EC50,[14],> 53 µM (inactive)
same,AC50,HEK293,6.79 µM (active)
